# Values of other authors, collected in article PMC6154651 (Molecules : A Journal of Synthetic Chemistry and Natural …, 2017).
# Columns and labels:
# [1] = system: FXR-LBD (ligand binding domain)
# LCA-induced cholestasis = conditions: mice, low dose 20 mg/kg
# obstructive cholestasis = conditions: bile duct-ligated mice
# FXR [2] = conditions: HepG2 cells
# FXR [3] = system: FXR; parameters: method as in PMID 16626693
compound,measurement,setting,value
"CC1(C)CC[C@]2(C(=O)O)CC[C@]3(C)C(=CC[C@@H]4[C@@]5(C)CC[C@H](O)C(C)(C)[C@@H]5CC[C@]43C)[C@@H]2C1 [Compound 1, oleanolic acid]",activity of FXR-LBD induced by CDCA,[1],dose-dependently suppressed
same,protection against LCA-induced cholestasis,LCA-induced cholestasis,could protect
same,effect on obstructive cholestasis,obstructive cholestasis,attenuate obstructive cholestasis
same,CDCA induction of bile salt export protein (BSEP),FXR [2]; 25 μM,partially blocked
same,expression of organic solute transporter (OST-β),FXR [2]; 25 μM,did not affect
same,expression levels of cholesterol 7α-hydroxylase (CYP7A1),FXR [2],suppressed
same,expression of short heterodimer partner (SHP),FXR [2],slightly enhanced
"CC1(C)CCC2(C(=O)O)CCC3(C)C(=CCC4C5(C)CCC(OC(=O)c6ccccc6C(=O)O)C(C)(C)C5CCC43C)C2C1 (stereo not drawn) [NPLC441, 3-β-(2-carboxybenzoyloxy)-oleanolic acid]",binding to retinoid X receptor-LBD,retinoid X receptor-LBD,bound strongly
C[C@@H]1O[C@@H](O[C@H]2[C@H](OC(=O)[C@]34CCC(C)(C)C[C@H]3C3=CC[C@@H]5[C@@]6(C)C[C@H](O)[C@H](O[C@@H]7O[C@H](CO)[C@@H](O)[C@H](O)[C@H]7O)C(CO)(CO)[C@@H]6CC[C@@]5(C)[C@]3(C)C[C@H]4O)OC[C@H](O)[C@@H]2O)[C@H](O)[C@H](O)[C@H]1O[C@@H]1OC[C@@H](O)[C@H](O[C@@H]2OC[C@](O)(CO)[C@H]2O)[C@H]1O [platycodin D],activity on FXR,FXR [3],weak activity
